Two compounds from ChEMBL document CHEMBL4706537, “Suramin derivatives play an important role in blocking the interaction between FGF1 and FGFRD2 to inhibit cell proliferation” (Eur J Med Chem, 2020) can be followed below.

Calls of active or inactive are those of the source. No cut-off for these calls is given here.

One assay concerns MCF7. As to the kind of experiment: Cytotoxicity against FGF1-stimulated human MCF7 cells cultured in serum-starved media assessed as reduction in cell viability incubated for 48 hrs by WST-1 assay. The format is functional, cell-based. The following applies: MCF7, 48 h.
For assay [1], the target named is T1, Fibroblast growth factor 1/Fibroblast growth factor receptor 2 (Homo sapiens) (UniProt P05230+P21802). As to the kind of experiment: Inhibition of FGF1/FGFR2 D2 domain interaction in human MCF7 cells assessed as decrease in cell count at 0.1 to 1 uM by WST-1 assay. Format: cell-based. The following applies: dose 0.1-1 µM.
Assay [2] deals with T1, Fibroblast growth factor 1/Fibroblast growth factor receptor 2 (Homo sapiens). As to the kind of experiment: Inhibition of FGF1/FGFR2 D2 domain interaction in human MCF7 cells assessed as decrease in cell proliferation at 0.1 to 1 uM by WST-1 assay. The format is cell-based. As to conditions: dose 0.1-1 µM. On the technique in general: Tetrazolium dyes change colour on reduction, which living cells bring about.

T1 sequence (P05230 whole entry, looked up, the tested form may be a part): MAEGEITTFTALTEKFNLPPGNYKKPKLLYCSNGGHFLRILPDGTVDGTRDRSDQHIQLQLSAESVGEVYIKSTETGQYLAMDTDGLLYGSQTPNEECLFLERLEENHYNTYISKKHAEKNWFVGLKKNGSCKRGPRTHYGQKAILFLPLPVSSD
T1 sequence (P21802 whole entry, looked up, the tested form may be a part): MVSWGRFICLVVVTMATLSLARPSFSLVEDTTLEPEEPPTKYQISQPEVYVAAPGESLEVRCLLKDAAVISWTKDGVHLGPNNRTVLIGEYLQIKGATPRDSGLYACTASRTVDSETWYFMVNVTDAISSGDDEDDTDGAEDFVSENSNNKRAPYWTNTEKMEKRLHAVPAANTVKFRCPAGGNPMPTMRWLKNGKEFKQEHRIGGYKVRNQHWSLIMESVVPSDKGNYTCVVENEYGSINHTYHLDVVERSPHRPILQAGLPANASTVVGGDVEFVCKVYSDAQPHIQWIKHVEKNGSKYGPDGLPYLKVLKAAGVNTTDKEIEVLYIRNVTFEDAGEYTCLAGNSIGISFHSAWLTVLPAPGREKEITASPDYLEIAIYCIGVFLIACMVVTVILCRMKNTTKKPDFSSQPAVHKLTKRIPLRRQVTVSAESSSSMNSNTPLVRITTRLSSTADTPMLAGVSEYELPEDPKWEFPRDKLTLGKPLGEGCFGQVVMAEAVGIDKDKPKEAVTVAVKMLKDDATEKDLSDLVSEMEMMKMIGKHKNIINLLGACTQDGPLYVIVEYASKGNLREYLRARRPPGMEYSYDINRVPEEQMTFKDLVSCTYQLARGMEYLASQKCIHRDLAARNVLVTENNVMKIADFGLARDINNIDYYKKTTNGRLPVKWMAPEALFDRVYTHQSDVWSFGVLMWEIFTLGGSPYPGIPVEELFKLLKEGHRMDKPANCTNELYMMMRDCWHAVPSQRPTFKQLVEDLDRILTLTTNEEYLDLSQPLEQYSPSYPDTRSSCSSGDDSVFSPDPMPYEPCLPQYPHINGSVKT

Take `O=C(Nc1ccc(C(=O)Nc2ccc(C(=O)Nc3cccc4cc(S(=O)(=O)O)ccc34)cc2)cc1)Nc1ccc(C(=O)Nc2ccc(C(=O)Nc3cccc4cc(S(=O)(=O)O)ccc34)cc2)cc1`: the IC50 in the assay with MCF7 was determined as 619 µM. The inhibition entry in assay [1] and in assay [2] was “Active” throughout.
On to `Cc1ccc(C(=O)Nc2ccc(S(=O)(=O)O)c3cc(S(=O)(=O)O)cc(S(=O)(=O)O)c23)cc1NC(=O)c1cccc(NC(=O)Nc2cccc(C(=O)Nc3cc(C(=O)Nc4ccc(S(=O)(=O)O)c5cc(S(=O)(=O)O)cc(S(=O)(=O)O)c45)ccc3C)c2)c1` [SURAMIN], for which the IC50 in the assay with MCF7 was 154 µM. The inhibition entry in assay [2] was “Active”.

By IC50 is commonly meant the concentration that inhibits the measured activity by half.
